According to the supplement of paper PMC10307832:

How the values were obtained:
Assay in all cases: relative viability (nuclei count vs DMSO), 5 days (fraction); higher = more cells survive
[1] = compound: Cc1ccc2nc(NCCN)c3ncc(C)n3c2c1 + Nc1ncn([C@H]2C[C@H](O)[C@@H](CO)O2)c(=O)n1 [Decitabine] (partner 2 µM)
Outline: (§1)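 A single step with final 0.05% Triton X-100, 1% formaldehyde and 1 ug/ml Hoechst fixed the cells and stained nuclei 5 days after treatment. Lung cancer cell lines in 1536-well plates had been treated by pin tool the day after seeding with one drug alone or a fixed anchor-drug dose plus five library-drug doses (not always all listed) in √10 steps, and nuclei were counted on 4× images. Relative viability is the ratio of nuclei in treated wells to nuclei in vehicle wells, taken as the median of duplicate plates.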

Salubrinal + AZD7762 = compound: O=C(/C=C/c1ccccc1)NC(NC(=S)Nc1cccc2cccnc12)C(Cl)(Cl)Cl [Salubrinal] + NC(=O)Nc1cc(-c2cccc(F)c2)sc1C(=O)N[C@H]1CCCNC1 [AZD7762] (partner 0.2 µM)
Outline: as §1

Salubrinal + Trametinib = compound: O=C(/C=C/c1ccccc1)NC(NC(=S)Nc1cccc2cccnc12)C(Cl)(Cl)Cl [Salubrinal] + CC(=O)Nc1cccc(-n2c(=O)n(C3CC3)c(=O)c3c(Nc4ccc(I)cc4F)n(C)c(=O)c(C)c32)c1 [Trametinib] (partner 0.02 µM)
Outline: as §1

[2] = compound: Cc1ccc2nc(NCCN)c3ncc(C)n3c2c1 + CS(=O)(=O)N1CCN(Cc2cc3nc(-c4cccc5[nH]ncc45)nc(N4CCOCC4)c3s2)CC1 [Pictilisib] (partner 1 µM)
Outline: as §1

| Cell Line | relative viability ([1]; first compound 0.04 µM) | relative viability ([1]; first compound 0.1265 µM) | relative viability ([1]; first compound 0.4 µM) | relative viability ([1]; first compound 1.265 µM) | relative viability ([1]; first compound 4 µM) | relative viability (Salubrinal + AZD7762; first compound 0.08 µM) | relative viability (Salubrinal + AZD7762; first compound 0.253 µM) | relative viability (Salubrinal + AZD7762; first compound 0.8 µM) | relative viability (Salubrinal + AZD7762; first compound 2.53 µM) | relative viability (Salubrinal + AZD7762; first compound 8 µM) | relative viability (Salubrinal + Trametinib; first compound 0.08 µM) | relative viability (Salubrinal + Trametinib; first compound 0.253 µM) | relative viability (Salubrinal + Trametinib; first compound 0.8 µM) | relative viability (Salubrinal + Trametinib; first compound 2.53 µM) | relative viability (Salubrinal + Trametinib; first compound 8 µM) | relative viability ([2]; first compound 0.04 µM) | relative viability ([2]; first compound 0.1265 µM) | relative viability ([2]; first compound 0.4 µM) | relative viability ([2]; first compound 1.265 µM) | relative viability ([2]; first compound 4 µM) |
| --- | --- | --- | --- | --- | --- | --- | --- | --- | --- | --- | --- | --- | --- | --- | --- | --- | --- | --- | --- | --- |
| 201T | 0.838 | 0.818 | 0.862 | 0.901 | 0.839 | 0.627 | 0.616 | 0.741 | 0.648 | 0.637 | 0.741 | 0.726 | 0.788 | 0.728 | 0.716 | 0.701 | 0.716 | 0.639 | 0.66 | 0.652 |
| A549 | 0.281 | 0.238 | 0.207 | 0.299 | 0.219 | – | – | – | – | – | – | – | – | – | – | 0.587 | 0.439 | 0.451 | 0.451 | 0.345 |
| A-427 | 0.557 | 0.561 | 0.547 | 0.58 | 0.539 | 0.892 | 0.716 | 0.755 | 0.802 | 0.67 | 0.782 | 0.812 | 0.791 | 0.689 | 0.764 | 0.743 | 0.653 | 0.596 | 0.691 | 0.702 |
| ABC-1 | 1.14 | 1.32 | 1.12 | 0.87 | 1.3 | 0.97 | 0.998 | 0.948 | 0.898 | 0.825 | – | – | – | – | – | 0.721 | 0.78 | 0.822 | 0.813 | 0.678 |
| BEN | 0.623 | 0.737 | 0.686 | 0.885 | 0.685 | 0.642 | 0.727 | 0.802 | 0.712 | 0.72 | 1.07 | 1.03 | 1.07 | 1.14 | 1.12 | 0.628 | 0.584 | 0.596 | 0.481 | 0.556 |
| CAL-12T | – | – | – | – | – | 0.625 | 0.657 | 0.741 | 0.577 | 0.619 | 0.378 | 0.406 | 0.327 | 0.244 | 0.269 | 0.521 | 0.517 | 0.389 | 0.364 | 0.232 |
| COR-L23 | 0.455 | 0.405 | 0.406 | 0.488 | 0.411 | – | – | – | – | – | 0.7 | 0.734 | 0.736 | 0.581 | 0.518 | 0.866 | 0.7 | 0.741 | 0.85 | 0.741 |
| COR-L 105 | 0.758 | 0.738 | 0.722 | 0.673 | 0.632 | – | – | – | – | – | 0.466 | 0.559 | 0.407 | 0.477 | 0.449 | 0.507 | 0.399 | 0.422 | 0.468 | 0.31 |
| Calu-6 | – | – | – | – | – | – | – | – | – | – | – | – | – | – | – | 1 | 0.781 | 0.989 | 0.836 | 0.475 |
| ChaGo-K-1 | 0.542 | 0.546 | 0.511 | 0.545 | 0.512 | 0.978 | 0.694 | 1 | 0.886 | 0.707 | 0.968 | 0.858 | 0.882 | 0.905 | 0.802 | 0.697 | 0.743 | 0.661 | 0.671 | 0.443 |
| EBC-1 | – | – | – | – | – | – | – | – | – | – | – | – | – | – | – | 0.4 | 0.35 | 0.336 | 0.246 | 0.263 |
| EKVX | 0.335 | 0.35 | 0.345 | 0.32 | 0.28 | 0.78 | 0.591 | 0.999 | 0.721 | 0.757 | 0.332 | 0.47 | 0.565 | 0.303 | 0.358 | 0.406 | 0.356 | 0.416 | 0.329 | 0.338 |
| EMC-BAC-2 | 0.973 | 1.01 | 0.989 | 1.06 | 0.966 | 1.1 | 1.06 | 1.31 | 1.16 | 1.13 | 0.948 | 0.878 | 0.937 | 0.906 | 0.973 | 0.586 | 0.58 | 0.554 | 0.569 | 0.579 |
| EPLC-272H | 0.386 | 0.386 | 0.395 | 0.341 | 0.327 | 0.229 | 0.191 | 0.304 | 0.229 | 0.156 | 0.305 | 0.298 | 0.298 | 0.314 | 0.298 | 0.33 | 0.356 | 0.288 | 0.336 | 0.306 |
| H3255 | 0.594 | 0.611 | 0.546 | 0.69 | 0.702 | 0.967 | 0.786 | 1.03 | 0.87 | 0.859 | 0.744 | 0.55 | 0.832 | 0.582 | 0.597 | 0.555 | 0.431 | 0.487 | 0.38 | 0.456 |
| HARA | 0.492 | 0.758 | 0.651 | 0.419 | 0.546 | 0.374 | 0.254 | 0.25 | 0.437 | 0.196 | 0.715 | 0.873 | 0.631 | 0.621 | 0.702 | 0.524 | 0.362 | 0.436 | 0.39 | 0.418 |
| HCC-15 | 0.624 | 0.693 | 0.474 | 0.598 | 0.522 | 1.4 | 1.22 | 1.28 | 1.25 | 1.25 | 0.444 | 0.36 | 0.379 | 0.378 | 0.381 | 0.799 | 0.761 | 0.666 | 0.707 | 0.694 |
| HCC-44 | 0.981 | 0.946 | 0.923 | 0.94 | 1 | 1.02 | 1.01 | 1.02 | 1 | 0.977 | 1.19 | 1.11 | 1.16 | 1.09 | 1.04 | 0.692 | 0.777 | 0.595 | 0.535 | 0.565 |
| HCC-78 | 0.745 | 0.711 | 0.735 | 0.664 | 0.617 | 0.699 | 0.599 | 0.758 | 0.613 | 0.538 | 0.869 | 0.692 | 0.652 | 0.791 | 0.686 | 0.229 | 0.23 | 0.222 | 0.215 | 0.217 |
